Test [1] concerns Acinetobacter baumannii ATCC 19606. Put plainly: Single-dose growth inhibition, Ab. In kind it is cell-based. To be noted: ATCC19606, 32 μg/mL single dose, n=2, read-out: Growth inhibition Ab. How it is done: (§1) Inhibition of bacterial growth was determined by measuring the absorbance at 600 nm (OD600), using a Tecan M1000 Pro monochromator plate reader. Growth inhibition was calculated for each well, relative to the reference growths determined from a negative control (media only) and positive control (bacteria without inhibitors) incubated in the same plate. A single dose of 32 μg/mL of COE (final concentration) was used for each test.
(§2) Percentage growth inhibition of an individual sample was calculated based on growth in a reference well determined from negative controls (media only) and positive controls (bacterial/fungal media without inhibitors). Negative inhibition values indicate that the growth rate (or OD600) is higher compared to the reference growth (bacteria/fungi only, set to 0% inhibition). The growth rates for all bacteria and fungi may vary at −/+10%, which were within the reported normal distribution of bacterial/fungal growth. Any significant variations (or outliers/hits) were identified by the modified Z-Score, and the active compounds were selected by a combination of inhibition values and Z-Score.
(§3) A M(i) value of >|2.5| (absolute) would classify the sample as outliers or hits. Active samples were denoted as compounds with inhibition values equal to or above 80% and absolute Z-Score above |2.5| for either replicate (n=2 on different plates). Partial active samples were denoted as compounds with inhibition values from 50% to <80%, or absolute Z-Score below |2.5|.

The subject of the next test is E. coli K12. Put plainly: MIC by broth microdilution against E. coli K12. In kind it is cell-based. The following applies: Escherichia coli, K12; broth microdilution, MHB, 18 hrs; read-out: MIC against E. coli K12. The procedure: (§4) The respective minimum inhibition concentration (MIC) of each COE molecule was determined using a broth microdilution method. Briefly, COEs were diluted via a 2-fold dilution series in 100 μL of either Muller Hinton Broth (MHB) for E. coli and S. aureus or Brain Heart Infusion Broth (BHI) for E. faecalis in a 96-well plate to achieve the desired final concentration. Subsequently, each well was inoculated with 100 μL of 1×10^6 colony forming units (CFU) mL^−1 of the respective microorganism in MHB for E. coli or BHI for E. faecalis to achieve an inoculum density of 5×10^5 CFU mL^−1. The plates were then incubated at 37° C. with shaking (200 rpm) for 18 hrs. […] The results were obtained in triplicate.
The MIC values of COE-D4, COE-D6 and COE-D8 against the reference strain E. coli K12, pathogenic E. coli UT189, and the Gram positive pathogen Enterococcus faecalis OG1RF were determined using a broth microdilution method as described in the general method above. The MICs for E. coli K12 were determined to be 128, 16, and 4 μg mL^−1 for COE-D4, COE-D6, and COE-D8, respectively (FIG. 5a). […] This is not surprising as these two organisms differ in the capsular polysaccharides that they expressed, which are known to hinder the uptake of antimicrobials and mitigate their potency (M. A. Campos, et al., Infect. Immun. 2004, 72, 7107-7114). A K-type capsid comprising α2-8-linked sialic acid is excreted by UT189 and is known to be an important virulence factor for this organism (C. Whitfield, et al., Mol. Microbiol. 1999, 31, 1307-1319; G. G. Anderson, et al., Infect. Immun. 2010, 78, 963-975).
On the technique in general: Broth dilution looks for growth in wells or tubes with falling amounts of substance.

Test [2] relates to Klebsiella pneumoniae MDR ATCC 700603. Kind of test: Single-dose growth inhibition, Kp. In kind it is cell-based. To be noted: ATCC700603, 32 μg/mL single dose, n=2, read-out: Growth inhibition Kp. The procedure: as §1, §2, §3
Test [3] concerns Escherichia coli FDA control ATCC 25922. Put plainly: Single-dose growth inhibition, Ec. The following applies: ATCC25922, 32 μg/mL single dose, n=2, read-out: Growth inhibition Ec. It counts as cell-based. How it is done:
as §1, §2, §3

Test [4] concerns Pseudomonas aeruginosa (PAO1) biofilm. Kind of test: Anti-biofilm assay (MBEC plate, crystal violet). The following applies: P. aeruginosa PAO1 biofilm, 1 hour challenge in M9GC. It counts as cell-based. How it is done: Pseudomonas aeruginosa (PAO1) was grown in Luria-Bertani (LB) broth under shaking (200 rpm) at 37° C. for 16-18 hours. The overnight culture was diluted to 1:200 in M9GC media (M9 medium supplemented with glucose and casamino acids), and 200 μL of diluted culture was added to each well of MBEC plate (Innovotech, Canada). After incubating at 37° C. for 5 hours under shaking (200 rpm), biofilm was formed on the pegs of the MBEC plate. The pegs were then rinsed with 1× phosphate buffered saline (PBS) solution (200 μL per well), and exposed to a two-fold dilution series of COE in M9GC media (200 μL per well). The challenge plate was incubated at 37° C. for 1 hour under shaking (200 rpm), and then the pegs were washed using 200 μL PBS before being dipped into 180 μL 0.1 wt. % crystal violet aqueous solution. After incubating at room temperature for 15 minutes, the pegs were rinsed with PBS twice and transferred to a plate containing 200 μL absolute ethanol in each well for 15 minutes. The biofilm mass was quantified by measuring the absorption of crystal violet/ethanol solution at 550 nm. The minimum biofilm dispersal concentration (MBDC) values were determined as the lowest COE concentration at which biofilm attached on the peg was completely dispersed. The results were repeated in triplicate.

The subject of test [5] is Staphylococcus aureus 25923. Put plainly: MIC against S. aureus 25923. In kind it is cell-based. The procedure:
as §4
The antimicrobial effects of COE-D62N and COE-D82N were also tested on the Gram-positive Staphylococcus aureus 25923 and Methicillin-resistant Staphylococcus aureus(MRSA BAA-40), in comparison with vancomycin (FIG. 5b).

The test system of test [6] is Candida albicans ATCC 90028. Put plainly: Single-dose growth inhibition, Ca. In kind it is cell-based. To be noted: ATCC90028, 32 μg/mL single dose, n=2, read-out: Growth inhibition Ca. How it is done:
(§5) Growth inhibition of C. albicans was determined by measuring the absorbance at 530 nm (OD530), while the growth inhibition of C. neoformans was determined by measuring the difference in absorbance between 600 and 570 nm (OD600-570), after the addition of resazurin (0.001 wt. % final concentration) and incubation at 35° C. for additional 2 hrs. The absorbance was measured using a Biotek Synergy HTX plate reader. The relative growth inhibition was calculated for each well, relative to that determined from a negative control (media only) and positive control (bacteria without inhibitors) on the same plate as references. A single dose of 32 μg/mL of COE (final concentration) was used for each test.
as §2, §3

Test [7] deals with Staphylococcus aureus MRSA ATCC 43300. Put plainly: Single-dose growth inhibition, Sa. It counts as cell-based. The following applies: 32 μg/mL single dose, n=2, read-out: Growth inhibition Sa. The procedure:
as §1, §2, §3

Test [8] concerns Cryptococcus neoformans var. grubii H99; ATCC 208821. Kind of test: Single-dose growth inhibition, Cn. In kind it is cell-based. To be noted: ATCC208821, 32 μg/mL single dose, n=2, read-out: Growth inhibition Cn. How it is done:
as §5, §2, §3

For test [9], the system named is Pseudomonas aeruginosa ATCC 27853. Put plainly: Single-dose growth inhibition, Pa. In kind it is cell-based. To be noted: ATCC27853, 32 μg/mL single dose, n=2, read-out: Growth inhibition Pa. How it is done: as §1, §2, §3
For test [10], the system named is organism classes (Gram-negative, Gram-positive and fungi). Put plainly: Single-dose screening summary by organism class. In kind it is cell-based. To be noted: 32 μg/mL; 0 = no activity. The procedure:
as §2
Z-Score analysis was carried out to investigate outliers or hits among the samples. The Z-Score was calculated based on the sample population using a modified Z-Score method which accounts for possible skewed sample population. The modified method uses median and MAD ([…]) instead of average and standard deviation, and a scaling factor (Iglewicz, B. & Hoaglin, D. C. Volume 16: How to Detect and Handle Outliers. The ASQC Basic Reference in Quality Control: Statistical Techniques, 1993). The equation to calculate the modified Z-Score value is as follow: […]
as §3

The test system of another test is E. faecalis. To be noted: literature (Tran et al. 2013); cited from earlier work.
Test [11] deals with multidrug-resistant Gram-negative bacteria. The following applies: literature (Falagas et al. 2005); cited from earlier work.

Here are results for 3 compounds from patent publication US12157713B2, “Conjugated oligoelectrolytes as antimicrobial agents” (Nanyang Technological University, priority 2018, dated 2024).

As a reminder, the inhibition is the drop in the measured response relative to a control, in per cent. For orientation: MIC means the lowest concentration that inhibits growth of the organism.

Regarding `C[N+](C)(C)CC[N+](C)(C)CCCCCCOc1ccc(/C=C/c2ccc(/C=C/c3ccc(OCCCCCC[N+](C)(C)CC[N+](C)(C)C)cc3)cc2)cc1` [COE-T62], the inhibition at 32 µg/mL in test [1] was under 50%; in test [2] it was under 50%; in test [3], over 80%; in test [6], over 80%; in test [7], over 80%; in [8], over 80%. Also, the inhibition at 32 µg/mL in [9] was under 50%. Moreover, the minimal inhibitory concentration (MIC) in the test with E. coli K12 was determined as 16 µg/mL; in test [5], 2 µg/mL. The “Minimum biofilm dispersal concentration” value in [4] was found to be 8 µg/mL. For the same compound, in test [10], the “Activity: number of organism classes the compound has been found active against” value is reported as 3.

In the case of `CCCCCCCCCC(=O)N[C@@H](Cc1c[nH]c2ccccc12)C(=O)N[C@H](CC(N)=O)C(=O)N[C@@H](CC(=O)O)C(=O)N[C@@H]1C(=O)NCC(=O)N[C@@H](CCCN)C(=O)N[C@@H](CC(=O)O)C(=O)N[C@H](C)C(=O)N[C@@H](CC(=O)O)C(=O)NCC(=O)N[C@H](CO)C(=O)N[C@@H]([C@H](C)CC(=O)O)C(=O)N[C@@H](CC(=O)c2ccccc2N)C(=O)O[C@@H]1C` [daptomycin], in the test with E. faecalis, the “MIC against E. faecalis in brain heart infusion media” value is “around 3 μg mL^−1”.

As to Colistin, in test [11], the “MIC against multidrug-resistant Gram-negative bacteria (in general)” value is at most 4 µg/mL. Moreover, the “Minimum biofilm dispersal concentration” value in test [4] amounted to 4 µg/mL.
